Eleven compounds from ChEMBL document CHEMBL1201862, “PubChem BioAssay data set” (2004) can be followed below.

Calls of active or inactive are those of the source.

Assay [1] addresses Beta-lactamase (Salmonella choleraesuis (strain SC-B67), UniProt Q5J463).
The target in assay [2] is T1, RNA-binding protein pos-1 (Caenorhabditis elegans, UniProt G5EF15).
T1 sequence (G5EF15 whole entry): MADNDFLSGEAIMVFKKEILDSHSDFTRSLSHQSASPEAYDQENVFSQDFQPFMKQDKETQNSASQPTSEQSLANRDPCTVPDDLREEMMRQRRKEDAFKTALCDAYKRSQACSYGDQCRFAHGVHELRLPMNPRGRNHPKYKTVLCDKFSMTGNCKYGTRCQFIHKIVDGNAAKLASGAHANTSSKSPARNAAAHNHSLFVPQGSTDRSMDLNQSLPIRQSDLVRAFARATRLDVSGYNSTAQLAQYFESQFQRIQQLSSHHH
In words: inhibitors of POS-1/mex-3 RNA binding, dose response, biochemical, fluorescence polarization (AID 1964).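 Also: purified POS-1 fused to maltose binding protein made in E. coli; potency of compounds blocking POS-1 binding to fluorescent RNA.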 On the technique in general: In fluorescence polarisation assays a small probe gives low polarisation when free and higher when bound to something large.

Assay [3] concerns the target T2, Zinc finger protein mex-5 (Caenorhabditis elegans, UniProt Q9XUB2).
T2 sequence (Q9XUB2 whole entry): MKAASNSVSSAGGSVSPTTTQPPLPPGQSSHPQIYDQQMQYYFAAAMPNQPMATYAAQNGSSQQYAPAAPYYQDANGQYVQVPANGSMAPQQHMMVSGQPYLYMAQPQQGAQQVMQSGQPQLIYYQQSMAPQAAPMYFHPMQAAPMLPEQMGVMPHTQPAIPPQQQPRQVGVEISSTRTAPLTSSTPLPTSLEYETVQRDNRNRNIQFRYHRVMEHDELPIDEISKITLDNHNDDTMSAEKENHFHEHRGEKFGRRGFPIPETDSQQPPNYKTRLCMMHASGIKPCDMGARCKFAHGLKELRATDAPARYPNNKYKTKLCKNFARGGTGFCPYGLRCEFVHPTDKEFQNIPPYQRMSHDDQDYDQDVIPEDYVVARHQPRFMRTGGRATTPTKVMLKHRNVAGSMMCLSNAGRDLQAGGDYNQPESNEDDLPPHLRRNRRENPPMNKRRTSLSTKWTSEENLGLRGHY
Put plainly: MEX-5/TCR-2 RNA interaction inhibitors, dose response, biochemical, C. elegans, fluorescence polarization (AID 1960).

In assay [4] the target is Beta-lactamase (Pseudomonas aeruginosa, UniProt Q79MP6).
Chain of Beta-lactamase (Pseudomonas aeruginosa, UniProt Q79MP6) (Q79MP6 whole entry): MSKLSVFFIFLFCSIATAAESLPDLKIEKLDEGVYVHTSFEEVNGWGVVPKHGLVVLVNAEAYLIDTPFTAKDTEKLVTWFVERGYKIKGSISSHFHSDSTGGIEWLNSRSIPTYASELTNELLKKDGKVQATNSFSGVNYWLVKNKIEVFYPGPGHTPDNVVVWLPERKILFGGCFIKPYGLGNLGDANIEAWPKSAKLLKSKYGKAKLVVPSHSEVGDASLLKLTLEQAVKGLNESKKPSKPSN
The target in assay [5] is T3, Apoptotic protease-activating factor 1 (Homo sapiens, UniProt O14727).
T3 sequence (O14727 whole entry): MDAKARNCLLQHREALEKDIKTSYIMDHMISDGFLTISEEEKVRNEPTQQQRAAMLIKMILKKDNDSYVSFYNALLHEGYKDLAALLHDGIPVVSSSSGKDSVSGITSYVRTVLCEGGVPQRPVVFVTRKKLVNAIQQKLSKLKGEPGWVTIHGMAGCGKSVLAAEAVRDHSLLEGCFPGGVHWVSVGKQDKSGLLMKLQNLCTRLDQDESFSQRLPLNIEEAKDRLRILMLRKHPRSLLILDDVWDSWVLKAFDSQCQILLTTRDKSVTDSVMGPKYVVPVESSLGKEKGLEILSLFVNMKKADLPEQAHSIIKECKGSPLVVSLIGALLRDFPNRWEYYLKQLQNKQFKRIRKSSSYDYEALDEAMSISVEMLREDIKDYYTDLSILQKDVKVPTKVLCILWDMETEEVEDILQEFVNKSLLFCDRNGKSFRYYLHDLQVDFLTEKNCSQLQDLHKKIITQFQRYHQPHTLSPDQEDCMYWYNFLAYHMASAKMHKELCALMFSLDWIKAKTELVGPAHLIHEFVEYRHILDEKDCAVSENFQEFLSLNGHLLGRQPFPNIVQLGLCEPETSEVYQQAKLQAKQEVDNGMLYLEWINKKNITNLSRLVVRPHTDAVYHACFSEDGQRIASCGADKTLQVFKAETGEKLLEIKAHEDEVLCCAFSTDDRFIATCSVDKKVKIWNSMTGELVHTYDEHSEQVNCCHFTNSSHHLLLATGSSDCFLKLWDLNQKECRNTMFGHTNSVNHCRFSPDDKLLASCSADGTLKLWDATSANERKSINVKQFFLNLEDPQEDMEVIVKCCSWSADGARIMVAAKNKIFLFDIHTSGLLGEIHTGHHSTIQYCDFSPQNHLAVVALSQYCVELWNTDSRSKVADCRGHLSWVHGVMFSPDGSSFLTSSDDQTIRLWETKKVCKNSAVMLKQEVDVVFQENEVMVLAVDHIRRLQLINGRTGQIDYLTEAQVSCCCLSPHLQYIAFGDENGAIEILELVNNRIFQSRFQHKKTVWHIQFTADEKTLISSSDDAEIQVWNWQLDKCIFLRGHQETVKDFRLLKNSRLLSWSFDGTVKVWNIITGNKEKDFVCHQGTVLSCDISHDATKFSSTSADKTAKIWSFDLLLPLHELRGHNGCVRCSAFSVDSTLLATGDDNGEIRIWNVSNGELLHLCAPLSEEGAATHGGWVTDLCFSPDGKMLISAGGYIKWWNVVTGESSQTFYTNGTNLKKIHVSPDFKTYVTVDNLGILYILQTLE
The class given is functional.

In assay [6] the target is T4, Sentrin-specific protease 8 (Homo sapiens, UniProt Q96LD8).
T4 sequence (Q96LD8 whole entry): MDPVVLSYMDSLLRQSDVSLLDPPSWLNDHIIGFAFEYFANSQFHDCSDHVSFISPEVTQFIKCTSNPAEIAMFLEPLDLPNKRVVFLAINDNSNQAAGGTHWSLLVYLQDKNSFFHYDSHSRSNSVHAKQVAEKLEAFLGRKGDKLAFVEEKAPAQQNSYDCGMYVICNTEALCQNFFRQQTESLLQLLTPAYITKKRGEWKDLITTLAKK
The class given is functional.

Assay [7] concerns the target T5, Low molecular weight phosphotyrosine protein phosphatase (Homo sapiens, UniProt P24666).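 Also: Dose-response confirmation assay measuring inhibition of LMPTP enzyme activity by fluorescence intensity read-out.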
T5 sequence (P24666 whole entry): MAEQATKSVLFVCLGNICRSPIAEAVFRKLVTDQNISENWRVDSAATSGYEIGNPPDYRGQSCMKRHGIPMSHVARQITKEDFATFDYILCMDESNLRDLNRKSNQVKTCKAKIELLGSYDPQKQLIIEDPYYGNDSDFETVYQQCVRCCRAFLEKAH
Type of assay: functional. Particulars: read-out: IC50_Mean.

Assay [8] deals with Induced myeloid leukemia cell differentiation protein Mcl-1 (Homo sapiens, UniProt Q07820). The class given is functional.
Chain of Induced myeloid leukemia cell differentiation protein Mcl-1 (Q07820 whole entry): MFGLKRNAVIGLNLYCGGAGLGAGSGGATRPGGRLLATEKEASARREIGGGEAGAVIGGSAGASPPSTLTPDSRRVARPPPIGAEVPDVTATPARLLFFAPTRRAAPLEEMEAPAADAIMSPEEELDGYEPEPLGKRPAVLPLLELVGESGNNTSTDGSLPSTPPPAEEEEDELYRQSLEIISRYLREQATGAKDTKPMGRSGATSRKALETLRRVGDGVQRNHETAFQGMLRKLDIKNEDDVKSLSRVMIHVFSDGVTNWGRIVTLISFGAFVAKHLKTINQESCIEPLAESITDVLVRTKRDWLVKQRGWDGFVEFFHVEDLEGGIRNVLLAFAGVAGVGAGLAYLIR
Assay [9] deals with T4, Sentrin-specific protease 8. The class given is functional. The source holds these as a separate data set.
Assay [10] concerns the target T6, Corticotropin-releasing factor receptor 2/Corticotropin-releasing factor-binding protein (Homo sapiens, UniProt P24387+Q13324).
T6 sequence (Q13324 whole entry): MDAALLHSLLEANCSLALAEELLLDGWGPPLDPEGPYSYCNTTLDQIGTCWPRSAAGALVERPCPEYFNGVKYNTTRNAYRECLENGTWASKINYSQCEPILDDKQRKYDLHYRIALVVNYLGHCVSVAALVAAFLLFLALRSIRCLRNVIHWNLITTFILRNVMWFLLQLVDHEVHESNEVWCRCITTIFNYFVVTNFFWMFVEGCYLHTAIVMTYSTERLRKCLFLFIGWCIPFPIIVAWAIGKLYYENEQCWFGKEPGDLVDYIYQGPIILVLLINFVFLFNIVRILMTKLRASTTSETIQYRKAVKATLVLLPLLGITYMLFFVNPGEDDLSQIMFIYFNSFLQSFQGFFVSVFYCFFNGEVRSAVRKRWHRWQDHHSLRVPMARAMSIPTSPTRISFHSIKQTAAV
T6 sequence (P24387 whole entry): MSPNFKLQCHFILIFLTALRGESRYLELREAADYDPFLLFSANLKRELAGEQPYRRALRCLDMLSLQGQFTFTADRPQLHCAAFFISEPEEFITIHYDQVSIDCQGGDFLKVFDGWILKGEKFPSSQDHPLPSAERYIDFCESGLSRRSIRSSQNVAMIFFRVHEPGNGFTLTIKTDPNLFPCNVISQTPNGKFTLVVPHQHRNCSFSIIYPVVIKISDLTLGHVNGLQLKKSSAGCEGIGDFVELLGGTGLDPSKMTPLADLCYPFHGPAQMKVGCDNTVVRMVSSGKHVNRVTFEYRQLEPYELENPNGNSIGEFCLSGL
In words: activators of CRF receptor 2 with binding protein – uHTS hits, confirmation (AID 602473). Type of assay: functional. Particulars: read-out: EC50_Mean.

The nature of assay [11]: Luminescence Cell-Based Dose Retest to Confirm Inhibitors of Cancer Stem Cells. [Related pubchem assays (depositor defined):AID2717, AID2721]. Type of assay: functional. Particulars: Homo sapiens.
Assay [12] can be described thus: CRF-BP/CRF-R2 complex antagonists, dose response, cell-based, uHTS hits, 384-well (AID 651639). The class given is functional, Homo sapiens. Particulars: read-out: IC50_Mean.
For assay [13], the target named is T6, Corticotropin-releasing factor receptor 2/Corticotropin-releasing factor-binding protein. In words: Dose Response confirmation of uHTS hits for small molecule antagonists of the CRF-binding protein and CRF-R2 receptor complex. The class given is functional. Particulars: read-out: IC50_Mean.
A short description of assay [14]: control 3'UTR Renilla luciferase suppression, dose response, counter-screen for Shn3 inhibitor project, cell-based, Clone20-Shn3RL, cherry-picked (AID 624133). Type of assay: functional. For orientation: A counterscreen serves to expose hits that act by an unwanted route or on another target.
The nature of assay [15]: HepG2 cell cytotoxicity, dose response, cytotoxicity control for Shn3 inhibitor project, CellTiter-Glo, cherry-picked (AID 624134). The class given is functional, cell-based.
Assay [16] in a line: Shn3 3'UTR reporter inhibitors, dose response, cell-based, Clone20 osteoblasts, firefly luciferase, cherry-picked (AID 624132).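 Also: firefly luciferase luminescence from reporter carrying the Shn3 3'UTR in osteoblasts.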 Type of assay: functional.
Assay [17] has as its target Protein Wnt-3a (Mus musculus, UniProt P27467). In words: Wnt3a-driven reporter signaling inhibition, dose response, selectivity assay for Gli-SUFU antagonist project, Wnt-LIGHT cells, luminescence (AID 651570).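 Also: Wnt-LIGHT reporter cells stimulated with conditioned medium from Wnt3a-producing cells.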 Type of assay: functional. Particulars: read-out: IC50_Mean.
The nature of assay [18]: HeLa cell cytotoxicity, dose response, cytotoxicity control for MgcRacGAP inhibitor project (AID 624300). Type of assay: functional.
The target of assay [19] is T7, Rac GTPase-activating protein 1 (Homo sapiens, UniProt Q9H0H5).
T7 sequence (Q9H0H5 whole entry): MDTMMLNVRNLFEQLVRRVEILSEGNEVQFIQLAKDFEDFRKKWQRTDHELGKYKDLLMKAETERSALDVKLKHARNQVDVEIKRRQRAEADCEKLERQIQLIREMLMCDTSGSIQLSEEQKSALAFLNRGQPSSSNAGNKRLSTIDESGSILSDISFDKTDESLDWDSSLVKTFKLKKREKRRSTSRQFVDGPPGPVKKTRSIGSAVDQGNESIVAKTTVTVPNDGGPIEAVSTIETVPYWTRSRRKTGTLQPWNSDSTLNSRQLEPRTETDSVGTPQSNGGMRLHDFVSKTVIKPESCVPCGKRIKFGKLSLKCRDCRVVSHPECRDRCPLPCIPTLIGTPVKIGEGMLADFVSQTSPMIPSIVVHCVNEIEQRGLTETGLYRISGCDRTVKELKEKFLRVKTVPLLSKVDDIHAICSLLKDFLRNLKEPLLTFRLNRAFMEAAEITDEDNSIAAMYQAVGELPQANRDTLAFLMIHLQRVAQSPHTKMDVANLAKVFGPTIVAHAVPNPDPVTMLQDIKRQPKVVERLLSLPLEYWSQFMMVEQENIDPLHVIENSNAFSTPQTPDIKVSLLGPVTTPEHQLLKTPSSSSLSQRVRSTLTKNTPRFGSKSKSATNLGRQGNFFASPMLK
Put plainly: MgcRacGAP GTPase-activating activity inhibitors, confirmation, biochemical, ADP Hunter fluorescence, primary and confirmatory (AID 624330). Type of assay: functional.

Assay [20] can be described thus: AlphaScreen signal interference compounds, dose response, artefact control for ARNT-TACC3 interaction inhibitor project, biochemical, luminescence, cherry-pick (AID 651705).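 Also: AlphaScreen bead proximity signal that flags compounds interfering with the detection technology; potency reflects signal decrease which marks the compound as an assay artifact.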 The class given is functional. (In general: In Alpha technology, singlet oxygen from a donor bead excites a nearby acceptor bead.)
For assay [21], the target named is T3, Apoptotic protease-activating factor 1. In words: SAR analysis of small molecule Activators of Apaf-1 in a Fluorescent assay. Particulars: read-out: EC50_Mean. The class given is functional.

Chain of Beta-lactamase (Salmonella choleraesuis (strain SC-B67), UniProt Q5J463) (Q5J463 whole entry): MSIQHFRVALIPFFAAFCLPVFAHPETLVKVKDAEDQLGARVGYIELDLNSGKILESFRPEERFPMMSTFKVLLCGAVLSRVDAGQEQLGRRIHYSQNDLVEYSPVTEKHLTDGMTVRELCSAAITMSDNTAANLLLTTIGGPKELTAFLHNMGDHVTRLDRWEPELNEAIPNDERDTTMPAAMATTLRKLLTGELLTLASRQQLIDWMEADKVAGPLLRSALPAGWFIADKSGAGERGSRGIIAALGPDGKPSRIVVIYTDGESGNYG
Chain of Protein Wnt-3a (P27467 whole entry): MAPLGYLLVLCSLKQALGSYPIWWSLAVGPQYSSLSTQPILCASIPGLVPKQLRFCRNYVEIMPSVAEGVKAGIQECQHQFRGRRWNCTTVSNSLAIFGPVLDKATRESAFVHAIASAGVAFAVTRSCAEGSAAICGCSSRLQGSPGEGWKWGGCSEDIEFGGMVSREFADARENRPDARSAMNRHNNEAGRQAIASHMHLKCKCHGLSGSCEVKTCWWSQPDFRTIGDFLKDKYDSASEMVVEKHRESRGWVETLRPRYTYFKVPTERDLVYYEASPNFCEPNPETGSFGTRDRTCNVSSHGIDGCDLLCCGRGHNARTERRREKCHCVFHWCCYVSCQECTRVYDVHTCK

As for `O=Cc1ccc2cccc3c2c1NC(C(F)(F)F)=N3`, the values for the IC50 in assay [1], in assay [4] and in assay [5] were 27.9 µM (inactive), 32.6 µM (inactive) and 9.2 µM (active), respectively. Further, the EC50 was 27.6 µM (active) in [2] and 24.8 µM (active) in [3].

As for `Nc1ccc(Cc2ccc(N)c(O)c2)cc1O`, the IC50 is > 100 µM (inactive) in assay [6], 26.7 µM (inactive) in assay [7], > 54 µM (active) in [8] and 27 µM (active) in assay [9].

Broadly, the AC50 is the concentration at which the activity in the assay is half-maximal. For `N#Cc1c(O)nc(SCc2cccc(Cl)c2)nc1-c1ccccc1`, the EC50 in [10] was > 53 µM (inactive). Moreover, the half-maximal activity concentration (AC50) in [11] is 4.86 µM (active). The IC50 is > 20 µM (inactive) in assay [12] and < 368 nM (active) in assay [13].

Regarding `O=c1c([N+](=O)[O-])c(NC2CCCCC2)c2ccccc2n1-c1ccccc1`, in assay [10], the EC50 was > 53 µM (inactive). Further, the IC50 in [12] is > 20 µM (inactive); in assay [13] it was 4330 nM (active).

For `O=P(O)(O)c1cc(-c2ccccc2)oc1-c1ccccc1`, the IC50 is > 59.6 µM (inactive) in [1] and 22.5 µM (inactive) in assay [4].

Regarding `COc1ccc(CNCC(O)COc2cccc3c2OC(C)(C)C3)cc1` (stereo not drawn), the half-maximal activity concentration (AC50) in assay [14] was 1.57 µM (active); in [15] it was 49.4 µM (active); in assay [16] it was 1.68 µM (active). Moreover, the IC50 in assay [17] is 3.22 µM (active).

Turning to `COc1ccc(CN(C)Cc2nc(Cc3cccc(F)c3)no2)c2cccnc12`, the IC50 in assay [17] is 2.18 µM (active).

As usually defined, the CC50 is the concentration at which the toxic effect on the cells reaches its halfway point. `C=CCc1c(C)nc(-c2ccccc2)nc1Nc1ccc(O)cc1`: in assay [18], the CC50 is 100 µM (active). Besides, the IC50 in assay [19] was 38.1 µM (active).

With `Nc1nc(O)nc(Nc2ccccc2)c1N=O`, the concentration at half-maximal activity (AC50) in [20] was 111 µM (active).

For `COc1ccc(C2=N[C@H](C(=O)O)CO2)cc1C(F)(F)F`, the EC50 in assay [21] was > 100 µM (inactive).

As to `CC(CC(F)(F)F)C(=O)O` (stereo not drawn), the EC50 in [21] is > 100 µM (inactive).
